# Test results published in PMC10054226, “Rapid and Efficient Access to Novel Bio-Inspired 3-Dimensional Tricyclic SpiroLactams as Privileged Structures via Meyers’ Lactamization” (Pharmaceuticals, 2023).
# Legend:
# [1] = tested on: metastatic breast cancer cell lines (MDA-MB-231); design: method as in PMID 21158420; settings: cited from earlier work
# [2] = LogD, octanol:PBS 1:1 at pH 7.4 (LC-MS/MS); format: physicochemical; settings: octanol:PBS 1:1 at pH 7.4, 2 h at room temperature, triplicate
# Protocol: To determine compound LogD, 10 mM of the compound 44 in DMSO was diluted 50-fold in a mixture of 1:1 octanol:PBS at pH 7.4. The mixture was gently shaken for 2 h at room temperature. Each sample was then diluted 50-fold in MeOH before LC-MS/MS analysis. For each compound, the test was performed in triplicate. LogD was determined as the logarithm of the ratio of product concentrations in octanol and PBS, respectively, determined by mass signals.
# [3] = Aqueous solubility in PBS at pH 7.4 (LC-MS/MS, AUC PBS/AUC MeOH x 200); format: physicochemical; settings: aqueous buffer, kinetic from dmso stock; PBS at pH 7.4, 24 h shaking at room temperature, triplicate
# Protocol: To determine compound solubility, 10 mM of the compound 44 in DMSO was diluted 50-fold either in PBS at pH 7.4 or in organic MeOH solvent in PP tubes (n = 3 for PBS and […]). The tubes were gently shaken for 24 h at room temperature. Then, the three PBS tubes and three of the six methanol tubes were centrifuged for 5 min at 4000 rpm and filtered over 0.45 μm filters (Millex-LH Millipore). The sample was diluted 50-fold in MeOH before LC-MS/MS analysis. The test was performed in triplicate. The solubility was determined by the following ratio: (AUCPBS/AUCMeOH) × 200.
Compound,activity against the proliferation of metastatic breast cancer cell lines [1],logD at 2 h [2],solubility at 24 h [3] [µM]
C=C1CCC2C(C)(C)CCCC23C(=O)OCC13 (stereo not drawn) [Antrocin],significant activity,,
"CC(C)[C@H]1CO[C@]23CCNC[C@H]2CCC(=O)N13 [Compound 44, (3S,7aR,11aR)-3-isopropyl-3,6,7,7a,8,9,10,11-octahydro-2H-oxazolo[2,3-j][1,6]naphthyridin-5-one;formic acid]",,-1.72,> 200
